# Test results: ChEMBL document CHEMBL3885861, “Open TG-GATES”
# Species on record: Rattus norvegicus
# Test: Open TG-GATES - Regimen: Single
# Assay type: toxicity, organism-based, Sprague-Dawley
# Parameters: regimen Single, gender Male, age 6 weeks
# Conditions: in vivo, iv, route intravenous injection; for KIDNEY_L / KIDNEY_R / KIDNEY_TOTAL: tissue Kidney; for LIVER: tissue Liver
# [1] = 1 mg/kg, 3 h, tissue Blood, dose level Low
# [2] = 1 mg/kg, 3 h, tissue Plasma, dose level Low
# [3] = 1 mg/kg, 6 h, tissue Blood, dose level Low
# [4] = 1 mg/kg, 6 h, tissue Plasma, dose level Low
# [5] = 1 mg/kg, 9 h, tissue Blood, dose level Low
# [6] = 1 mg/kg, 9 h, tissue Plasma, dose level Low
# [7] = 1 mg/kg, 24 h, tissue Blood, dose level Low
# [8] = 1 mg/kg, 24 h, tissue Plasma, dose level Low
structure (smiles),measurement,setting,value
COc1cccc2c1C(=O)c1c(O)c3c(c(O)c1C2=O)C[C@@](O)(C(=O)CO)C[C@@H]3O[C@H]1C[C@H](N)[C@H](O)[C@H](C)O1 [DOXORUBICIN],TERMINAL_BW,"1 mg/kg, 3 h, dose level Low",214.5 g
same,Bas,[1],0%
same,Eos,[1],1%
same,Fbg,[1],272 mg/dL
same,Hb,[1],13.4 g/dL
same,Ht,[1],38.5%
same,Lym,[1],77%
same,MCH,[1],21.8 pg
same,MCHC,[1],34.8%
same,MCV,[1],62.7 fL
same,Mono,[1],3%
same,PT,[1],16.4 s
same,Plat,[1],126.6 x10_4/uL
same,RBC,[1],614.2 x10_4/ul
same,Ret,[1],6.6%
same,KIDNEY_L,"1 mg/kg, 3 h, dose level Low",0.9 g
same,KIDNEY_R,"1 mg/kg, 3 h, dose level Low",0.9 g
same,KIDNEY_TOTAL,"1 mg/kg, 3 h, dose level Low",1.9 g
same,LIVER,"1 mg/kg, 3 h, dose level Low",9.4 g
same,ALP,[2],1599.2 IU/L
same,ALT,[2],44 IU/L
same,AST,[2],86.6 IU/L
same,CRE,[2],0.2 mg/dL
same,DBIL,[2],0.002 mg/dL
same,GLC,[2],185.4 mg/dL
same,K,[2],4.2 meq/L
same,Na,[2],142.4 meq/L
same,RALB,[2],2.9 g/dL
same,TBIL,[2],0.018 mg/dL
same,TC,[2],67.8 mg/dL
same,TG,[2],81 mg/dL
same,TP,[2],5.1 g/dL
same,gamma-GTP,[2],1.6 IU/L
same,TERMINAL_BW,"1 mg/kg, 6 h, dose level Low",211.5 g
same,Bas,[3],0%
same,Eos,[3],0.4%
same,Fbg,[3],292.8 mg/dL
same,Hb,[3],13 g/dL
same,Ht,[3],38.2%
same,Lym,[3],79.4%
same,MCH,[3],21.9 pg
same,MCHC,[3],34.2%
same,MCV,[3],64 fL
same,Mono,[3],3.4%
same,PT,[3],15.9 s
same,Plat,[3],117.6 x10_4/uL
same,RBC,[3],598.8 x10_4/ul
same,Ret,[3],7%
same,KIDNEY_L,"1 mg/kg, 6 h, dose level Low",1 g
same,KIDNEY_R,"1 mg/kg, 6 h, dose level Low",1 g
same,KIDNEY_TOTAL,"1 mg/kg, 6 h, dose level Low",1.9 g
same,LIVER,"1 mg/kg, 6 h, dose level Low",8.9 g
same,ALP,[4],1586.4 IU/L
same,ALT,[4],43.4 IU/L
same,AST,[4],78.8 IU/L
same,CRE,[4],0.1 mg/dL
same,DBIL,[4],0 mg/dL
same,GLC,[4],172 mg/dL
same,K,[4],4.2 meq/L
same,Na,[4],140.6 meq/L
same,RALB,[4],2.9 g/dL
same,TBIL,[4],0.022 mg/dL
same,TC,[4],71.8 mg/dL
same,TG,[4],62.6 mg/dL
same,TP,[4],5.2 g/dL
same,gamma-GTP,[4],1.6 IU/L
same,TERMINAL_BW,"1 mg/kg, 9 h, dose level Low",206.4 g
same,Bas,[5],0%
same,Eos,[5],1%
same,Fbg,[5],286.2 mg/dL
same,Ht,[5],38.8%
same,Lym,[5],74.8%
same,MCH,[5],21.3 pg
same,MCHC,[5],34.3%
same,MCV,[5],62.3 fL
same,Mono,[5],3%
same,Neu,[5],20.4%
same,PT,[5],16.4 s
same,Plat,[5],115.3 x10_4/uL
same,RBC,[5],624 x10_4/ul
same,Ret,[5],6.7%
same,KIDNEY_L,"1 mg/kg, 9 h, dose level Low",0.9 g
same,KIDNEY_R,"1 mg/kg, 9 h, dose level Low",0.9 g
same,KIDNEY_TOTAL,"1 mg/kg, 9 h, dose level Low",1.8 g
same,LIVER,"1 mg/kg, 9 h, dose level Low",8.1 g
same,ALP,[6],1211 IU/L
same,AST,[6],73.4 IU/L
same,CRE,[6],0.1 mg/dL
same,DBIL,[6],0 mg/dL
same,GLC,[6],180 mg/dL
same,K,[6],4.2 meq/L
same,LDH,[6],136.6 IU/L
same,Na,[6],140.2 meq/L
same,RALB,[6],3 g/dL
same,TBIL,[6],0.02 mg/dL
same,TC,[6],67.8 mg/dL
same,TG,[6],52.6 mg/dL
same,TP,[6],5.3 g/dL
same,gamma-GTP,[6],1.2 IU/L
same,TERMINAL_BW,"1 mg/kg, 24 h, dose level Low",218.4 g
same,Bas,[7],0%
same,Eos,[7],0.8%
same,Fbg,[7],307.6 mg/dL
same,Ht,[7],37.2%
same,Lym,[7],83.2%
same,MCH,[7],21.6 pg
same,MCHC,[7],35.8%
same,MCV,[7],60.4 fL
same,Mono,[7],3.4%
same,PT,[7],16.7 s
same,Plat,[7],116 x10_4/uL
same,RBC,[7],617.4 x10_4/ul
same,Ret,[7],6.2%
same,KIDNEY_L,"1 mg/kg, 24 h, dose level Low",0.9 g
same,KIDNEY_R,"1 mg/kg, 24 h, dose level Low",1 g
same,KIDNEY_TOTAL,"1 mg/kg, 24 h, dose level Low",1.9 g
same,ALP,[8],1436.4 IU/L
same,AST,[8],68.2 IU/L
same,CRE,[8],0.2 mg/dL
same,DBIL,[8],0.002 mg/dL
same,GLC,[8],191.8 mg/dL
same,K,[8],4.3 meq/L
same,Na,[8],142.4 meq/L
same,RALB,[8],3 g/dL
same,TBIL,[8],0.024 mg/dL
same,TC,[8],75.2 mg/dL
same,TG,[8],102.4 mg/dL
same,TP,[8],5.6 g/dL
same,gamma-GTP,[8],1.4 IU/L
same,TERMINAL_BW,"3 mg/kg, 3 h, dose level Middle",212.4 g
same,Bas,"3 mg/kg, 3 h, tissue Blood, dose level Middle",0%
